Results filed as inconclusive are left out. Active and inactive are the calls of the source. No rule for the calls is given here.
How the values were obtained:
Assay in all cases: caspase 3/7 activation in multiple cell lines – Caspase-Glo 3/7 luminescence, multiple timepoints, mechanism study for HRAS target identification project, profiling panel (AID 652143)
SNB-19 = settings: Cell line panel, caspase 3/7 luminescence, 1/6/24 h
SR = settings: Cell line panel, caspase 3/7 luminescence, 1/6/24 h
U-251 = settings: Cell line panel, caspase 3/7 luminescence, 1/6/24 h
LOX-IMVI = settings: Cell line panel, caspase 3/7 luminescence, 1/6/24 h, caspase 3/7 AC40, timepoint 3
HT-29 = settings: Cell line panel, caspase 3/7 luminescence, 1/6/24 h, caspase 3/7 AC40, timepoint 2

## CC(C)(C)OC(=O)NCCOCCOCCOc1ccc(N(C(=O)CCl)C(C(=O)NCCc2ccccc2)c2cccs2)cc1Cl (stereo not given)
SNB-19
  AC40: > 35 µM (inactive)

## COc1ccc(N(C(=O)CCl)C(C(=O)NCCc2ccccc2)c2cccs2)cc1Cl (stereo not given)
SR
  AC40: 22.2 µM
SR; caspase 3/7 AC40, timepoint 2
  AC40: 0.177 µM
SR; caspase 3/7 AC40, timepoint 3
  AC40: 0.551 µM
U-251
  AC40: 14.7 µM
U-251; caspase 3/7 AC40, timepoint 2
  AC40: 1.45 µM
U-251; caspase 3/7 AC40, timepoint 3
  AC40: 0.948 µM

## CCC(=O)N(c1ccc(OC)c(Cl)c1)C(C(=O)NCCc1ccccc1)c1cccs1 (stereo not given)
SNB-19
  outcome: inactive
U-251
  outcome: inactive
LOX-IMVI
  AC40: > 35 µM

## O=C(NCCOCCOCCOc1ccc(N(C(=O)CCl)C(C(=O)NCCc2ccccc2)c2cccs2)cc1Cl)c1ccc(COC2C#CCCCCC2)cc1 (stereo not given)
HT-29
  AC40: > 35 µM

## Cc1onc(C(=O)N2CCN(C(c3ccc(Cl)cc3)c3ccc(Cl)cc3)CC2)c1[N+](=O)[O-]
SNB-19
  outcome: inactive

## Cc1onc(C(=O)N2CCN(C(c3ccc(Cl)cc3)c3ccc(OCCOCCOCCNC(=O)OC(C)(C)C)cc3)CC2)c1[N+](=O)[O-] (stereo not given)
SNB-19
  outcome: inactive

## CO[C@H]1C[C@@H]2CC[C@@H](C)[C@@](O)(O2)C(=O)C(=O)N2CCCC[C@H]2C(=O)O[C@H]([C@H](C)C[C@@H]2CC[C@@H](O)[C@H](OC)C2)CC(=O)[C@H](C)/C=C(\C)[C@@H](O)[C@@H](OC)C(=O)[C@H](C)C[C@H](C)/C=C/C=C/C=C/1C
SNB-19
  outcome: inactive
SNB-19; caspase 3/7 AC40, timepoint 2
  AC40: 35 µM

From PubChem BioAssay AID652143 (Broad Institute, 2013)
